Assay results as given in patent US20040156881A1, “Use of lignans in foods” (priority 2001, published 2004).

What was measured:
[1] = system: Prostaglandin E2 (=PGE2) production by the human skin fibroblasts; test: PGE2 levels in PMA-induced human dermal fibroblasts (anti-inflammatory cell assay); format: cell-based; details: primary human foreskin fibroblasts, FIGS. 1 and 2; for concentration dependence of anti-inflammatory effect as measured by a reduction in PGE2: increasing concentrations; for anti-inflammatory effect (PGE2 level versus control+veh+PMA): three concentration levels
Procedure: It is emphasized that the anti-inflammatory effects were determined by in vitro tests wherein the Prostaglandin E2 (=PGE2) production by the human skin fibroblasts is measured after being induced by the inflammatory modulus phorbyl myristyl acetate (PMA). A reduction of the levels of PGE2 is indicative of the anti-inflammatory effect.
Fibroblast cell assay: Primary human foreskin fibroblasts at passage 2 (P2) were seeded into 96-well plates at 35000 cells/well and maintained for 24 hours in an atmosphere of 5% carbon dioxide in Dulbeccos Modified Eagles Medium (DMEM) supplemented with 10% foetal calf serum.
The lignan-compound (SECO or MAT) was added to fresh cell media (DMEM, supplemented with 10% foetal calf serum) in 100% ethanol (final concentration 1%) in triplicate and incubated for a further 24 hours. Phorbal myristate acetate (PMA) in ethanol/cell media ([…]) was added to the cells treated with the lignan compound (SECO) and the cells incubated for a further 24 hours. PMA represents an external stressor, which induces oxidative stress and inflammatory responses in cells. The fibroblasts/media were then analysed as described below immediately, or, snap frozen in liquid nitrogen and stored at −70° C. for future analysis. The cells were then counted to ensure no effect on cell number.
Different concentrations of SECO or MAT were used in the above method to study the effect of concentration. A series of control experiments were also carried out according to the above method; Control+veh+PMA (positive control), Control+veh (negative control) and control (standard control).
Prostaglandin E2 (PGE2) assay volumes of 50 μl culture medium were taken for PGE2 assay from the above samples after gently shaking the culture plate. PGE2 levels in the medium were determined with a Biotrak PGE2 immunoassay kit (Amersham, UK). The assay is based on the competition between unlabelled PGE2 in the sample and a fixed quantity of horseradish peroxidase labelled PGE2 for a limited amount of fixed PGE2 specific antibody. Concentrations of unlabelled sample PGE2 are determined according to a standard curve, which was obtained at the same time.

[2] = system: Procollagen-I and Decorin production by the human dermal fibroblasts; test: Procollagen-I and decorin synthesis in human dermal fibroblasts (anti-ageing cell assay, dot blot); format: cell-based; details: primary human foreskin fibroblasts, serum free DMEM, 24 hours, different concentration levels, FIGS. 3 and 4
Procedure: It is emphasized that the anti-ageing effects were determined by in vitro tests wherein the Procollagen-I and Decorin production by the human dermal fibroblasts is measured after being induced by the anti-ageing stimulus. An increase in the levels of Procollagen-I is indicative of the anti-ageing effect.
Preparation of Dermal Fibroblast Conditioned Medium: Primary human foreskin fibroblasts at passage 2 (P2) were seeded into 12-well plates at 40000 cells/well and maintained for 24 hours in an atmosphere of 5% carbon dioxide and 4% oxygen in Dulbeccos Modified Eagles Medium (DMEM) supplemented with 10% foetal calf serum. After this time the cells were washed with serum free DMEM and then incubated in fresh serum free DMEM for a further 60 hours. The fibroblast monolayers were then washed again with serum free DMEM.
The test reagent (MAT and SECO at different concentration levels) and vehicle control (1% ethanol final concentration) were added to the cells in triplicate in a final volume of 0.4 ml/well fresh serum free DMEM and incubated for a further 24 hours. This fibroblast conditioned medium was either analysed immediately, or, snap frozen in liquid nitrogen and stored at −70° C. for future analysis. The cells were then counted and data from the dot-blot analysis subsequently standardised to cell number. […]

SMILES	concentration dependence of anti-inflammatory effect as measured by a reduction in PGE2 [1]	anti-inflammatory effect (PGE2 level versus control+veh+PMA) [1]	anti-ageing effects (procollagen-I and decorin synthesis relative to vehicle treated control of 100 arbitrary units) [2]
COc1cc(C[C@H]2COC(=O)[C@@H]2Cc2ccc(O)c(OC)c2)ccc1O [MAT, matairesinol]	produced increasing anti-inflammatory effects	effective in producing an anti-inflammatory effect in human cells	showed increased anti-ageing effects in human cells compared to a control sample
COc1cc(C[C@@H](CO)[C@H](CO)Cc2ccc(O)c(OC)c2)ccc1O [SECO, secoisolariciresinol]	produced increasing anti-inflammatory effects	effective in producing an anti-inflammatory effect in human cells	showed increased anti-ageing effects in human cells compared to a control sample
